This is an account of results in PMC9667936, “Functional mapping of the 14-3-3 hub protein as a guide to design 14-3-3 molecular glues” (Chemical Science, 2022).

Where a SMILES comes first, the peptide text is derived from it. [ ]: non-standard residue; d: D form. The star is where a group is joined. ξ: configuration not given here. FITC = O=C1OC2(c3ccc(O)cc3Oc3cc(O)ccc32)c2ccc(NC(=S)*)cc21; Phe(4-NO2) = N[C@@H](Cc1ccc([N+](=O)[O-])cc1)C(=O)O; ξAla(4-thiazolyl) = NC(Cc1cscn1)C(=O)O; pS = N[C@@H](COP(=O)(O)O)C(=O)O; β3hS = N[C@@H](CO)CC(=O)O; Nva = CCC[C@H](N)C(=O)O; βAla = NCCC(=O)O

This assay concerns the target T1, 14-3-3γ (Homo sapiens, UniProt P61981).
T1 construct: made in house; host or cells: E. coli NiCo21 (DE3)
T1 sequence (P61981 1-247): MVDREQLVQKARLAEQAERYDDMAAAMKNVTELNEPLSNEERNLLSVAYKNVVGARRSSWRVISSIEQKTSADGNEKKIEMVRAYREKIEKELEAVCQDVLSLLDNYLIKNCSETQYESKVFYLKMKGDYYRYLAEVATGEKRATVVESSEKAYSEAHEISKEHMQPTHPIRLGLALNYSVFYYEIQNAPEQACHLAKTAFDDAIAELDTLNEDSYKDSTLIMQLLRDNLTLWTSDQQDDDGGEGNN
Description: Fluorescence anisotropy (FA) binary binding study: 14-3-3 titrated to fluorescein-labelled peptide. The note with it: for individual ΔΔG of removed residue: ΔG relative to the previously truncated peptide; for Affinity Kd: 10 nM FITC-labelled peptide. Here is the method:
14-3-3γ protein expression (FP/ITC experiments)
(§1) A pPROEX HTb expression vector encoding the human 14-3-3 protein gamma (14-3-3γ) with an N-terminal his6-tag was transformed by heat shock into NiCo21 (DE3) competent cells. Single colonies were cultured in 50 mL LB medium (100 µg/mL ampicillin). After overnight incubation at 37 °C, cultures were transferred to 2 L TB media (100 µg/mL ampicillin, 1 mM MgCl2) and incubated at 37 °C until an OD600 nm of 0.8-1.2 was reached. Protein expression was then induced with 0.4 mM isopropyl-β-d-thiogalactoside (IPTG), and cultures were incubated overnight at 18 °C. Cells were harvested by centrifugation (8600 rpm, 20 minutes, 4 °C) and resuspended in lysis buffer (50 mM Hepes, pH 8.0, 300 mM NaCl, 12.5 mM imidazole, 5 mM MgCl2, 2 mM βME) containing cOmplete™ EDTA-free Protease Inhibitor Cocktail tablets (1 tablet/100 ml lysate) and benzonase (1 µl/100 ml). After lysis using a C3 Emulsiflex-C3 homogenizer (Avestin), the cell lysate was cleared by centrifugation (20000 rpm, 30 minutes, 4 °C) and purified using Ni2+-affinity chromatography (Ni-NTA superflow cartridges, Qiagen).
Typically two 5 mL columns (flow 5 mL/min) were used for a 2 L culture in which the lysate was loaded on the column washed with 10 CV wash buffer (50 mM Hepes, pH 8.0, 300 mM NaCl, 25 mM imidazole, 2 mM βME) and eluted in several fractions (2-4 CV) of elution buffer (50 mM Hepes, pH 8.0, 300 mM NaCl, 250 mM imidazole, 2 mM βME). Fractions containing the 14-3-3 protein were combined and dialyzed into 25 mM HEPES pH 8.0, 100 mM NaCl, 10 mM MgCl2, 500 µM TCEP. Finally, the protein was concentrated to ∼60 mg/mL, analyzed Q-Tof LC/MS, and aliquots were flash-frozen for storage at […]
as §1, with “sigma truncated after T231 (14-3-3σΔc) and” for “gamma (14-3-3γ)”, “tablet/ 100” for “tablet/100”, “µl/ 100” for “µl/100”, “ml).” for “ml). After lysis using a C3 Emulsiflex-C3 homogenizer (Avestin), the cell lysate was cleared by centrifugation (20000 rpm, 30 minutes, 4 °C) and purified using Ni2+-affinity chromatography (Ni-NTA superflow cartridges, Qiagen).”
After lysis using a C3 Emulsiflex-C3 homogenizer (Avestin), the cell lysate was cleared by centrifugation (20000 rpm, 30 minutes, 4 °C) and purified using Ni2+-affinity chromatography (Ni-NTA superflow cartridges, Qiagen). Typically two 5 mL columns were used for a 2 L culture in which the lysate was loaded on the column washed with 10 CV wash buffer (50 mM Hepes, pH 8.0, 300 mM NaCl, 25 mM imidazole, 2 mM βME) and eluted with several fractions (2-4 CV) of elution buffer (50 mM Hepes, pH 8.0, 300 mM NaCl, 250 mM imidazole, 2 mM βME). Fractions containing the 14-3-3 protein were combined and dialyzed into 25 mM HEPES pH 8.0, 200 mM NaCl, 10 mM MgCl2, 2 mM βME. In addition, 1 mg TEV was added for each 100 mg purified protein to remove the purification tag. The cleaved sample was then again loaded on a 10 mL Ni-NTA column to separate the cleaved product from the expression tag and residual uncleaved protein. The flowthrough was loaded on a Superdex 75 pg 16/60 size exclusion column (GE Life Sciences) using 25 mM HEPES, 100 mM NaCl, 10 mM MgCl2, 500 μM TCEP (adjusted to pH=8.0) as running buffer. Fractions containing the 14-3-3 protein were pooled and concentrated to ∼60 mg/mL, analyzed Q-Tof LC/MS, and aliquots were flash-frozen for storage at −80 […]
The peptides 1 and 2a-d were synthesized on 50 µmol scale on a Rink amide MBHA resin […]
(Fluorescence polarisation rises when a labelled molecule tumbles more slowly, as on binding a larger partner.)

[1] abbreviates: Table S2, FA KD of peptide divided by KD of previous (one amino acid longer) peptide, mean of n = 3.
Setting [2] is: Table S2, KD / KD of previous (one amino acid longer) peptide, replicate 1.
The mark [3] stands for this setting: Table S2, KD / KD of previous (one amino acid longer) peptide, replicate 2.
Where [4] appears, read: Table S2, KD / KD of previous (one amino acid longer) peptide, replicate 3.
The mark [5] stands for this setting: Table S2, calculated from FA KD, mean of n = 3.
Setting [6] is: Table S2, from FA KD, replicate 1.
[7] abbreviates: Table S2, from FA KD, replicate 2.
Where [8] appears, read: Table S2, from FA KD, replicate 3.
Setting [9] is: Table S2, ΔG minus ΔG of previous peptide, FA, replicate 1.
[10] abbreviates: Table S2, ΔG minus ΔG of previous peptide, FA, replicate 2.
Setting [11] is: Table S2, ΔG minus ΔG of previous peptide, FA, replicate 3.
Where [12] appears, read: Table S2, ΔG of peptide minus ΔG of previous (one amino acid longer) peptide, FA, mean of n = 3.

For the compound `C[C@H](NC(=O)[C@H](CCCCN)NC(=O)[C@H](Cc1ccc([N+](=O)[O-])cc1)NC(=O)CCNC(=O)C[C@H](CO)NC(=O)[C@H](Cc1ccc([N+](=O)[O-])cc1)NC(=O)[C@H](COP(=O)(O)O)NC(=O)C(N)Cc1cscn1)C(=O)N[C@@H](CCCCNC(=S)Nc1ccc2c(c1)C(=O)OC21c2ccc(O)cc2Oc2cc(O)ccc21)C(N)=O` (stereo partly drawn) [2c] (H-[ξAla(4-thiazolyl)][pS][Phe(4-NO2)][β3hS][βAla][Phe(4-NO2)]KAK(FITC)-NH2), the “individual ΔΔG of removed residue” value (FA) is reported as “only minor energy contributions”. The “Fold change to previous” value was 0,53 under setting [1], 0,51 under setting [2], 0,53 under setting [3] and 0,56 under setting [4]. Also, the ΔG under setting [5] is -9,90 kcal/mol, the ΔG under setting [6] was -9,93 kcal/mol, the ΔG under setting [7] was -9,88 kcal/mol and the ΔG under setting [8] is reported as -9,88 kcal/mol. Also, the ΔΔG (to previous) by setting is: under setting [9], -0,40 kcal/mol; under setting [10], -0,38 kcal/mol; under setting [11], -0,34 kcal/mol; under setting [12], -0,37 kcal/mol.

For `C[C@H](NC(=O)[C@H](CCCCN)NC(=O)[C@H](Cc1ccc([N+](=O)[O-])cc1)NC(=O)CCNC(=O)C[C@H](CO)NC(=O)[C@H](Cc1ccc([N+](=O)[O-])cc1)NC(=O)[C@@H](N)COP(=O)(O)O)C(=O)N[C@@H](CCCCNC(=S)Nc1ccc2c(c1)C(=O)OC21c2ccc(O)cc2Oc2cc(O)ccc21)C(N)=O` [2d] (H-[pS][Phe(4-NO2)][β3hS][βAla][Phe(4-NO2)]KAK(FITC)-NH2), the “fold change in binding affinity on truncation” value (FA KD relative to the previous (one amino acid longer) peptide) came out at 43 fold. The “cumulative ΔΔG of truncating the entire N- or C-terminus” value (FA, relative to peptide 1 (2d: entire N-terminus; 2i: entire C-terminus)) is 2.9 kcal/mol. The “individual ΔΔG of removed residue” value (FA) turned out to be 2.2 kcal/mol. Moreover, the “ΔΔG N-term (cumulative, whole N-terminus removed)” value (Table S2, N-term = 2d relative to 1, FA, mean of n = 3) is 2,86 kcal/mol. Further, the “ΔΔG N-term (cumulative)” value is, setting by setting: (Table S2, N-term = 2d relative to 1, FA, replicate 1) 2,88 kcal/mol; (Table S2, N-term = 2d relative to 1, FA, replicate 2) 2,94 kcal/mol; (Table S2, N-term = 2d relative to 1, FA, replicate 3) 2,75 kcal/mol. The “Fold change to previous” value by setting is: under setting [1], 43,23; under setting [2], 40,69; under setting [3], 45,81; under setting [4], 43,18. In addition, the ΔG is -7,67 kcal/mol under setting [5], -7,74 kcal/mol under setting [6], -7,61 kcal/mol under setting [7] and -7,65 kcal/mol under setting [8]. Also, the ΔΔG (to previous) under setting [9] is given as 2,19 kcal/mol, the ΔΔG (to previous) under setting [10] is reported as 2,26 kcal/mol, the ΔΔG (to previous) under setting [11] is given as 2,23 kcal/mol and the ΔΔG (to previous) under setting [12] is given as 2,23 kcal/mol.

One may read the Kd as the concentration at which binding is half-saturated. Consider `CCC[C@H](NC(=O)[C@H](N)CCCCN)C(=O)N[C@@H](Cc1ccc([N+](=O)[O-])cc1)C(=O)N[C@@H](C)C(=O)N[C@@H](COP(=O)(O)O)C(=O)N[C@@H](Cc1ccc([N+](=O)[O-])cc1)C(=O)N[C@@H](CO)CC(=O)NCCC(=O)N[C@@H](Cc1ccc([N+](=O)[O-])cc1)C(=O)N[C@@H](CCCCN)C(N)=O` [3a] (H-[dK][Nva][Phe(4-NO2)]A[pS][Phe(4-NO2)][β3hS][βAla][Phe(4-NO2)]K-NH2; N-terminus and C-terminus assumed), for which the “ΔΔG of point mutation (FA)” value (FA, relative to 1, mean ± SD, SD) was found to be 0.0 ± 0.4 kcal/mol. For the same compound, the “Affinity Kd” value (Table S4, point-mutated peptides, FA, replicate 1) was 100 nM; the “Affinity Kd” value (Table S4, point-mutated peptides, FA, replicate 2) came out at 42 nM; the “Affinity Kd” value (Table S4, point-mutated peptides, FA, replicate 3) was 72 nM. For the same compound, under “Table S4, point-mutated peptides, FA, 14-3-3 titrated to 10 nM FITC-labelled peptide, HEPES pH 7.4, room temperature, 4PL fit, mean of n = 3, read-out: Affinity Kd”, the Kd was found to be 71 nM. For the same compound, the “Fold change to 1” value was 1.9 (Table S4, FA Kd / Kd of 1, replicate 1); 0.6 (Table S4, FA Kd / Kd of 1, replicate 2); 1.0 (Table S4, FA Kd / Kd of 1, replicate 3); 1.2 (Table S4, FA Kd of peptide divided by Kd of 1, mean of n = 3). The ΔG reads like this: (Table S4, calculated from FA Kd, mean of n = 3) -9.8 kcal/mol; (Table S4, from FA Kd, replicate 1) -9.5 kcal/mol; (Table S4, from FA Kd, replicate 2) -10.1 kcal/mol; (Table S4, from FA Kd, replicate 3) -9.7 kcal/mol. In addition, the “ΔΔG to 1” value is given as 0.4 kcal/mol (Table S4, ΔG minus ΔG of 1, FA, replicate 1); -0.3 kcal/mol (Table S4, ΔG minus ΔG of 1, FA, replicate 2); 0.0 kcal/mol (Table S4, ΔG minus ΔG of 1, FA, replicate 3); 0.0 kcal/mol (Table S4, ΔG of peptide minus ΔG of 1, FA, mean of n = 3).
